In patent US20220151979A1, “COMPOSITION FOR PREVENTION OR TREATMENT OF CARDIOVASCULAR AND METABOLIC DISEASE COMPRISING NORANHYDROICARITIN” (SEOUL NATIONAL UNIVERSITY HOSPITAL, priority 2019, published 2022):

Tests used:
PCSK9 promoter = assay: PCSK9 promoter-reporter luciferase assay in HEK293T cells; assay type: cell-based, human; conditions: pGL4.14-PCSK9-transfected HEK293T cells, 2.5-20 μM, 18 hours
Protocol: In order to confirm the PCSK9 gene expression inhibitory effect of noranhydroicaritin, HEK293T cells were treated with noranhydroicaritin at various concentrations, and it was confirmed whether the expression of PCSK9 was inhibited through a luciferase assay.
i) A primer was prepared to contain KpnI and XhoI restriction enzyme sites in the PCSK9 promoter gene region, and then PCR (polymerase chain reaction) and electrophoresis on an agarose gel were performed to isolate PCSK9 promoter region DNA. A pGL4.14-[luc2/Hygro] vector containing a firefly luciferase as a reporter gene was treated with the same restriction enzymes (KpnI and XhoI), and then isolated via agarose gel electrophoresis and gel extraction. […]
ii) In order to measure the transcriptional activity of the PCSK9 promoter gene, HEK293T cells were transfected with pGL4.14-PCSK9, and then the luciferase activity of the cell extract was measured. […]
iii) After 18 hours of incubation, cells were washed with PBS one time, an appropriate amount of luciferase reagent was added to each well, then the plate was shaken for 15 min, the supernatant was obtained, and the transcriptional activity was measured. Passive lysis buffer was used, and the luciferase activity was measured using a microplate luminometer (Tecan). […]

HepG2 cells = assay: MTT cell viability of HepG2 cells; assay type: cell-based, human
Protocol: In order to confirm the toxicity of noranhydroicaritin to cells, HepG2 cells (human liver hepatocellular carcinoma) were treated with each of kaempferol and noranhydroicaritin at various concentrations, and the cell viability of HepG2 cells at each concentration was calculated through the MTT screening method.
Specifically, HepG2 cells were suspended in DMEM (Welgene Inc.) medium containing 10% fetal bovine serum at a concentration of 1×10^5 cells/mL, and 100 μL thereof was inoculated into each well of a 96-well plate. After 4 hours, the HepG2 cells in the well plate were treated with each of kaempferol and noranhydroicaritin samples at concentrations of 2.5 μM, 5 μM, 10 μM, and 20 μM. After incubation for 24 hours, 5 μL of MTT (5 mg/mL) was added to the well plate, and the cells were further incubated for 4 hours. Thereafter, the medium was removed, 100 μL of DMSO was added to the well plate, the reaction was conducted, and then the absorbance was measured at 570 nm. As a control, cholesterol synthesis inhibitors atorvastatin (Ato) and rosuvastatin (Ros) were used. The cell viability was calculated according to the following mathematical formula as a value relative to 100% of the value for the negative control treated only with DMSO. The results are illustrated in FIG. 1. […]

atherosclerotic plaque = assay: Gross plaque imaging in PCSK9-injected mouse carotid-ligation arteriosclerosis model; assay type: in vivo; conditions: AAV-PCSK9 virus, high-fat diet, 10 μg/g/day, 3 weeks after ligation, vehicle group about 45%
Protocol: By ligation to the carotid artery of 6- to 8-week-old mice, mechanical stress was applied to induce inflammation, thrombosis, oxidative stress, and shear stress, and the function and structure of the external carotid (EC) were changed to prepare an atherosclerosis model (FIG. 13). Specifically, ligation was performed on the left common carotid artery (LCA) after abdominal anesthesia by performing carotid artery ligation on mice fed a high-fat diet for one week. Partial ligation of three branches in the LCA, the external carotid artery (ECA), the internal carotid artery (ICA), and the occipital artery (OA) was performed. At this time, ICA and OA were ligated, and ECA was ligated separately. In mice subjected to ligation, the amount of blood flow to the heart decreased and the direction of blood flow changed, whereby an atherosclerosis model was prepared. Carotid artery ligation was performed one week after injection of AAV-PCSK9 Virus (1×10^11 IFU/mL) and noranhydroicaritin (10 μg/g/day). After 3 weeks of ligation, it was confirmed whether the atherosclerosis model was completed, and gross plaque imaging and immunofluorescence were performed to confirm the arteriosclerosis inhibitory effect of noranhydroicaritin.

MCP-1 = assay: Immunofluorescence of MCP-1 in carotid artery, mouse arteriosclerosis model; assay type: in vivo; conditions: 10 μg/g/day
Protocol: Carotid artery ligation was performed one week after injection of AAV-PCSK9 Virus (1×10^11 IFU/mL) and noranhydroicaritin (10 μg/g/day). After 3 weeks of ligation, it was confirmed whether the atherosclerosis model was completed, and gross plaque imaging and immunofluorescence were performed to confirm the arteriosclerosis inhibitory effect of noranhydroicaritin.
Furthermore, the arteriosclerosis inhibitory effect of noranhydroicaritin was confirmed using immunofluorescence. Specifically, a mouse carotid artery was obtained and fixed in 4% PFA for one day, and then prepared into a block. As the inflammatory response in blood vessels progresses, the arteriosclerosis worsens, and thus the marker […] of macrophages causing arteriosclerotic inflammatory response and TNF-α, IL-1B, and MCP-1, which are pro-inflammatory cytokines secreted when the inflammatory response occurs, were stained. Staining was performed using the antibody for each of CAP1(1:200), PCSK9(1:100), F4/80(1:100), TNF-α(1:100), […], and MCP-1(1:100), then imaging was performed using a confocal microscope, and […] was evaluated.

Question: `CC(C)=CCc1c(O)cc(O)c2c(=O)c(O)c(-c3ccc(O)cc3)oc12` [Noranhydroicaritin, noranhydroicaritin] was tested. Which PCSK9 luciferase activity (PCSK9 promoter) did it give?
Answer: decreased in a noranhydroicaritin concentration-dependent manner

Question: What about the cell viability (HepG2 cells; 20 μM, 24 hours, MTT, relative to DMSO negative control) of the same compound?
Answer: ≥ 90%

Question: What about the “cell viability compared with control” value (HepG2 cells; same concentration as atorvastatin or rosuvastatin) of the same compound?
Answer: higher than the cell viability of the cells treated with atorvastatin or rosuvastatin

Question: And the atherosclerotic plaque-formed area (atherosclerotic plaque)?
Answer: about 20%

Question: What about the “expression of MCP-1 (immunofluorescence)” value (MCP-1) of the same compound?
Answer: decreased
